The values below come from patent publication US4782092A, “5,8-dichloro-4-hydroxy-1-[(aminoalkyl) amino]-9,10-anthracenediones, pharmaceutical compositions and use” (Mid-America Cancer Center, priority 1986, dated 1988).

For one experiment, the system named is L1210 Leukemia. The experiment can be described thus: growth-inhibitory effects against mouse tumor line L1210 in suspension cell culture. To be noted: L1210, 72 h. It is filed as cell-based. The procedure: In another test protocol, growth-inhibitory effects are measured against the mouse tumor line L1210 in suspension cell culture. Cell cultures were initiated at a density of 50,000 cells/ml in medium RPMI […] supplemented with 10 percent fetal calf serum. Composition of this culture medium and details of the culture procedure follow the published method (Journal of the National Cancer Institute 36, 405-415, 1966). Cultures are maintained at 37 degrees in stationary suspension culture under a 95 percent air +5 percent CO2 atmosphere. Test compounds are added to treated cultures at the time of initiation, and are present continually. After 72 hours, 40-fold dilutions of drug-treated and untreated control cultures are prepared in 0.9 percent NaCl solution, and cells are counted on an electronic particle counter. The growth-inhibitory effects are expressed as ID50 values, namely test compound inhibitory dosages or concentrations required to decrease cell count in treated cultures to 50 percent of the cell count of untreated control cultures.

The test system of a further experiment is Escherichia coli PD08463. In words: in vitro antibacterial/antifungal (ABF) agar-disk diffusion assay, Escherichia coli PD08463. As to conditions: 5.0 mg/ml, read-out: Inhibition Zone Diameter. It is filed as cell-based. The procedure: (§1) One test protocol is the in vitro antibacterial/antifungal (ABF) test. Compounds are tested for antimicrobial activity in an agar-disk diffusion assay, a standard microbiological technique for testing antibiotics. After incubation of each culture with a test compound, a zone of inhibition is determined. The zone diameter (mm) of active compounds ranges from a minimum of 14 mm to as high as 18 mm, with a greater diameter reflecting higher activity. For convenience, values are reported for three gram-negative bacterial species, Alcaligenes viscolactis ATCC 21698, Escherichia coli Tol and PD04863, Branhamella catarrhalis PD03596; and one gram-positive bacterium, Bacillus subtilis PD04555.

A further experiment relates to Escherichia coli Tol. In words: in vitro antibacterial/antifungal (ABF) agar-disk diffusion assay, Escherichia coli Tol. Format: cell-based. As to conditions: read-out: Inhibition Zone Diameter. The procedure:
as §1
(Agar diffusion results depend on both activity and mobility in agar.)

Experiment [1] deals with Alcaligenes viscolactis (ATCC-21698). In words: in vitro antibacterial/antifungal (ABF) agar-disk diffusion assay, Alcaligenes viscolactis. It is filed as cell-based. To be noted: read-out: Inhibition Zone Diameter. As for the experimental part:
as §1

For the next experiment, the system named is P388 Leukemia. In words: in vivo lymphocytic leukemia P388 test. Also noted: species or system mice (CD2 F1). To be noted: IP/IP, QOID × 5. As for the experimental part: Another test protocol is the in vivo lymphocytic leukemia P388 test. The animals used are either male or female CD2 F1 mice, six or seven animals per test group. The tumor transplant is by intraperitoneal injection of dilute ascitic fluid containing cells of lymphocytic leukemia P388. The test compounds are administered intraperitoneally once daily for five consecutive days at various doses following tumor inoculation. The animals are weighed and survivors are recorded on a regular basis for 30 days. A compound is designated "toxic" if, at a given dose, all animals died prior to four days after the first injection of drug. A ratio of survival time for treated (T)/control (C) animals is calculated. A criterion for efficacy is a ratio T/C times 100 greater than or equal to 125. See Cancer Chemotherapy Reports, Part 3, 3, 1 (1972) for a comprehensive discussion of the protocol.

In experiment [2] the test system is Branhamella catarrhalis PD03596. In words: in vitro antibacterial/antifungal (ABF) agar-disk diffusion assay, Branhamella catarrhalis. It is filed as cell-based. To be noted: Moraxella catarrhalis, 5.0 mg/ml, read-out: Inhibition Zone Diameter. The procedure: as §1
The subject of the next experiment is B16 Melanoma. In words: solid tumor B16 melanoma in mice. It is filed as in vivo, mice (B6C3F1). To be noted: IP/IP, QOID × 9. As for the experimental part: Another test protocol utilizes the solid tumor B16 melanoma in mice. The tumor is inoculated by intraperitoneal injection. The test compounds are administered intraperitoneally once daily for nine consecutive days at various doses following tumor inoculation. A ratio of survival time for treated (T)/control (C) animals is calculated. A criterion for efficacy is a ratio T/C times 100 greater than or equal to […]. See Cancer Therapy Reviews, 7,167(1980) and references cited therein for further details and interpretation of the test.
*Procedure described in Cancer Chemotherapy Reviews, 7, 167 (1980) and
references cited therein.

For experiment [3], the system named is Bacillus subtilis PD04555. In words: in vitro antibacterial/antifungal (ABF) agar-disk diffusion assay, Bacillus subtilis. Format: cell-based. To be noted: read-out: Inhibition Zone Diameter. As for the experimental part: as §1
Setting [4] is: Test 1, read-out: Molar Concentration Required for 50% Inhibition of Growth (ID50).
[5] abbreviates: Test 2, read-out: Molar Concentration Required for 50% Inhibition of Growth (ID50).
[6] abbreviates: 25 mg/kg, listed as 5,8-Dichloro-4-hydroxy-1-[ [2-[(2-hydroxyethyl)aminoethyl]amino]-7,10-anthracene.
The mark [7] stands for this setting: 50 mg/kg, listed as 5,8-Dichloro-4-hydroxy-1-[ [2-[(2-hydroxyethyl)aminoethyl]amino]-7,10-anthracene.
Setting [8] is: 100 mg/kg, listed as 5,8-Dichloro-4-hydroxy-1-[ [2-[(2-hydroxyethyl)aminoethyl]amino]-7,10-anthracene.

Several values for one entry are separate records, joined by “and”; a condition that tells them apart may be missing. Identical values can stand only once. Like-named read-outs stand apart in the source and are kept apart here.

Take `CN(C)CCNc1ccc(O)c2c1C(=O)c1c(Cl)ccc(Cl)c1C2=O` [5,8-dichloro-4-hydroxy-1-[2-(dimethylamino)ethyl]amino-9,10-anthracenedione]: the IC50 in the experiment with L1210 Leukemia (setting [4]) was determined as 91.9 nM; in the experiment with L1210 Leukemia (setting [5]), 80.9 nM.

As to `O=C1c2c(O)ccc(NCCNCCO)c2C(=O)c2c(Cl)ccc(Cl)c21` [5,8-dichloro-4-hydroxy-1-[[2-[(2-hydroxyethyl)aminoethyl]amino]]-9,10-anthracenedione], the zone of inhibition at 5000 µg/mL in the experiment with Escherichia coli PD08463 was found to be 14 mm; in the experiment with Escherichia coli Tol (5.0 mg/ml), 18 mm; in experiment [1] (ATCC21698, 5.0 mg/ml), 15 mm; in experiment [2] it was 14 mm; in experiment [3] (5.0 mg/ml), 16 mm. The zone of inhibition at 1000 µg/mL with Escherichia coli Tol (1.0 mg/ml) is 15 mm; in experiment [1] (ATCC21698, 1.0 mg/ml), 14 mm; in experiment [3] (1.0 mg/ml) it was 14 mm. In addition, the “T/C × 100” value in the experiment with P388 Leukemia (6.25 mg/kg) is 154%; in the experiment on P388 Leukemia (12.5 mg/kg) it was 146%; in the experiment with P388 Leukemia (setting [6]), 242% and 163%; in the experiment with P388 Leukemia (setting [7]), 175% and 188% and 177%; in the experiment on P388 Leukemia (setting [8]), 235% and 202%; in the experiment with B16 Melanoma (6.25 mg/kg), 166%. Also, the “T/C × 100” value in the experiment with B16 Melanoma (12.5 mg/kg) is 172%; in the experiment on B16 Melanoma (20 mg/kg), 224%; in the experiment on B16 Melanoma (setting [6]) it was 199% and 130%; with B16 Melanoma (40 mg/kg), 231%; in the experiment with B16 Melanoma (setting [7]) it was 252% and 143%; in the experiment with B16 Melanoma (80 mg/kg) it was 271%. The “T/C × 100” value in the experiment on B16 Melanoma (setting [8]) was 270% and 191%; in the experiment with B16 Melanoma (160 mg/kg) it was 326%; with B16 Melanoma (200 mg/kg, listed as 5,8-Dichloro-4-hydroxy-1-[ [2-[(2-hydroxyethyl)aminoethyl]amino]-7,10-anthracene), 180% and 172%; in the experiment on B16 Melanoma (400 mg/kg) it was 190%. Also, the cures result in the experiment with P388 Leukemia (25 mg/kg), in the experiment on B16 Melanoma (12.5 mg/kg), in the experiment with B16 Melanoma (25 mg/kg), in the experiment on B16 Melanoma (40 mg/kg), with B16 Melanoma (50 mg/kg) and with B16 Melanoma (80 mg/kg) was “cures” in each case. Besides, the cures result with B16 Melanoma (100 mg/kg) was “cures”. The IC50 in the experiment with L1210 Leukemia (setting [4]) stood at 86.6 nM; in the experiment on L1210 Leukemia (setting [5]) it was 111 nM.
